{
  "source": "patent US20190374509A1",
  "about": "“Methods of Using Metamizole for Treatment of Pyrexia in Equines” (Kindred Biosciences, Inc., priority 2018, published 2019)",
  "key": {"[1]": {"system": "horses", "test": "Margin of safety study: lung bacterial culture at necropsy"}, "[2]": {"system": "horses", "test": "Pyrexia efficacy Study 2 (masked, randomized, placebo controlled, crossover, rectal temperature)", "type": "in vivo", "conditions": "for Mean (standard deviation) temperature: 30 mg/kg IV single dose", "experimental": "Study 2: The masked, randomized, placebo controlled laboratory study was conducted at a clinical research organization in the United States. IACUC approval was obtained prior to the conduct of the study. Horses one year of age or older were comingled by the Investigator in order to facilitate transmission of respiratory infections. Horses were monitored by the study staff for elevation of rectal temperature. […] Unblinded dose administrators administered the study drug (Phase 1). A single dose of study drug was administered. Treatment was either dipyrone (30 mg/kg IV) or placebo (saline, matched volume, IV). Blinded personnel recorded the rectal temperature at 4 and 6 hours post-treatment administration. Twenty-four hours following Dose 1 horses were monitored for rectal temperature. Horses with rectal temperature≥102.0° F. were crossed over to the other treatment group. Unblinded dose administrators administered the study drug (Phase 2), and blinded personnel recorded the rectal temperature 4 and 6 hours post-treatment administration. […] Blinding was maintained until the completion of the statistical analysis.\n(§1) In both studies horses were assessed daily to determine overall safety. Medications that could have impacted the temperature or the underlying cause of the disease were not permitted in either study; however, horses in both studies were eligible for rescue at the discretion of the Investigator. Following completion of the study, the Investigator treated the horses with standard of care for the type, and severity, of clinical signs. Statistical analysis was performed with the Wilcoxon rank sum test (SAS®, SAS Institute, Cary N.C., version 9.4)."}, "[3]": {"system": "horses", "test": "Pyrexia efficacy Study 1 (unmasked, single IV dose, rectal temperature)", "type": "in vivo", "conditions": "30 mg/kg IV single dose; for Mean (± SD) temperature change from baseline: horses with rectal temperature ≥102.0° F.", "experimental": "Study 1: The unmasked laboratory study was conducted at a clinical research organization in the United States. Institutional Animal Care and Use Committee (IACUC) approval was obtained prior to the conduct of the study. Horses one year of age or older were comingled by the Investigator in order to facilitate transmission of respiratory infections. Horses were monitored by the study staff for elevation of rectal temperature. All horses received treatment once the rectal temperature was ≥102.0° F. A single dose of dipyrone was administered intravenously (30 mg/kg IV). Rectal temperature was monitored 1, 2, 3, and 6 hours post-treatment administration.\nas §1"}, "[4]": {"system": "horses", "test": "Margin of safety study, IV three times daily for 9 days: necropsy, organ weights, histopathology", "type": "in vivo", "conditions": "for Liver (absolute weight) LS Means / Liver (relative to body weight) LS Means: necropsy", "experimental": "A study was conducted to evaluate the margin of safety of metamizole when administered intravenously to horses for 9 days at doses of 0 mg/kg (0×), 30 mg/kg (1×), 60 mg/kg (2×), and 90 mg/kg (3×) of body weight three times daily (TID), every 8 hours±30 min.\nTreatment phase involved administration of the investigational drug or placebo. The investigational drug was a sterile injectable formulation of dipyrone (Zimeta™, Corden Pharma, Caponago, Italy) (500 mg/mL) in 100 mL glass bottles. The placebo was sterile injectable saline (Nova-Tech Inc, Grand Island, NE) (0.9% sodium chloride) in 500 mL plastic bottles labeled for veterinary use. Dipyrone treatment groups were 30 mg/kg (1×), 60 mg/kg (2×), and 90 mg/kg (3×). Placebo treatment group was saline administered at a volume to match the 3× dipyrone group (0×). The dose was calculated based on body weight and administered three times daily for nine consecutive days. Due to the large volume of injection at the higher dose groups, treatment was administered via indwelling intravenous (IV) catheters. Intravenous catheters were placed using standard techniques. Horses were sedated with xylazine (AnaSed® LA, VetOne, MWI, Boise, Id.) and the skin was desensitized with subcutaneous injection of lidocaine (VetOne, MWI, Boise, Id.). Intravenous catheters were replaced at the discretion of the study director and were maintained with heparinized saline flush prior to and following dose administration.\nRandomization occurred on Study Day −1. […] .\nFor continuous endpoints with single post-treatment measures (organ weight and organ weight relative to body weight), analysis of variance (ANOVA) was used to evaluate a model including treatment, sex, and treatment by sex interaction as fixed effects. If treatment by sex interaction was significant, within sex pair-wise comparison of each treatment group versus placebo using linear contrasts were performed. If treatment by sex interaction was not significant and treatment effect was significant, pair-wise comparison of each treatment group versus placebo for pooled sex were performed. In particular, sex specific organ weights (ovaries) were analyzed by ANOVA including only treatment as a fixed effect."}},
  "data": [
    {"smiles": "Cc1c(N(C)CS(=O)(=O)O)c(=O)n(-c2ccccc2)n1C", "note": "[dipyrone, [(2,3-dihydro-1,5-dimethyl-3-oxo-2-phenyl-1H-pyrazol-4-yl)methylamino] methanesulfonic acid]", "values": [
      {"measurement": "S. aureus cultured at necropsy, number positive horses", "setting": "[1]; 1X, 30 mg/kg IV every 8 hours", "value": 1},
      {"measurement": "Acinetobacter sp. cultured at necropsy, number positive horses", "setting": "[1]; 2X, 60 mg/kg IV every 8 hours", "value": "2X (n = 1)"},
      {"measurement": "Aeromonas sp. cultured at necropsy, number positive horses", "setting": "[1]; 2X, 60 mg/kg IV every 8 hours", "value": "2X (n = 1)"},
      {"measurement": "Pantoea sp. cultured at necropsy, number positive horses", "setting": "[1]; 2X, 60 mg/kg IV every 8 hours", "value": "2X (n = 1)"},
      {"measurement": "Pseudomonas sp. cultured at necropsy, number positive horses", "setting": "[1]; 2X, 60 mg/kg IV every 8 hours", "value": "2X (n = 1)"},
      {"measurement": "S. aureus cultured at necropsy, number positive horses", "setting": "[1]; 2X, 60 mg/kg IV every 8 hours", "value": 2},
      {"measurement": "S. dysgalactiae subsp. equisimilis cultured at necropsy, number positive horses", "setting": "[1]; 2X, 60 mg/kg IV every 8 hours", "value": "2X (n = 1)"},
      {"measurement": "S. equi subsp. zooepidemicus cultured at necropsy, number positive horses", "setting": "[1]; 2X, 60 mg/kg IV every 8 hours", "value": "0X (n = 2), 2X (n = 1), 3X (n = 1)"},
      {"measurement": "S. aureus cultured at necropsy, number positive horses", "setting": "[1]; 3X, 90 mg/kg IV every 8 hours", "value": 2},
      {"measurement": "S. equi subsp. zooepidemicus cultured at necropsy, number positive horses", "setting": "[1]; 3X, 90 mg/kg IV every 8 hours", "value": "0X (n = 2), 2X (n = 1), 3X (n = 1)"},
      {"measurement": "Mean (standard deviation) temperature", "setting": "[2]; Phase 1, hour 4", "value": 100.0, "unit": "° F."},
      {"measurement": "Mean (standard deviation) temperature", "setting": "[2]; Phase 1, hour 6", "value": 100.8, "unit": "° F."},
      {"measurement": "Mean (standard deviation) temperature", "setting": "[2]; Phase 2 (crossover), hour 4", "value": 100.4, "unit": "° F."},
      {"measurement": "Mean (standard deviation) temperature", "setting": "[2]; Phase 2 (crossover), hour 6", "value": 100.8, "unit": "° F."},
      {"measurement": "Rectal temperature compared to controls", "setting": "[2]; 30 mg/kg IV, both phases, Hour 4, p<0.0001", "value": "significantly lowered rectal temperatures"},
      {"measurement": "Mean (± SD) temperature change from baseline", "setting": "[3]; Hour 1", "value": "−1.1 (± 0.5) ° F."},
      {"measurement": "Mean (± SD) temperature change from baseline", "setting": "[3]; Hour 2", "value": "−1.4 (± 1.0) ° F."},
      {"measurement": "Mean (± SD) temperature change from baseline", "setting": "[3]; Hour 3", "value": "−1.9 (± 1.0) ° F."},
      {"measurement": "Mean (± SD) temperature change from baseline", "setting": "[3]; Hour 6", "value": "−1.9 (± 1.1) ° F."},
      {"measurement": "Fever reduction post-dose", "setting": "[3]; Hours 1, 2, 3, 6", "value": "significantly reduced fever at all measured timepoints post-dose"},
      {"measurement": "Horses with reduced fever (>1° F.)", "setting": "[3]; eight horses, Hour 6", "value": 87.5, "unit": "%"},
      {"measurement": "Horses with return to normothermia (≥2° F.)", "setting": "[3]; eight horses, Hour 6", "value": 75, "unit": "%"},
      {"measurement": "Liver (absolute weight) LS Means", "setting": "[4]; 1X, 30 mg/kg IV every 8 hours", "value": 6280.00, "unit": "g"},
      {"measurement": "Liver (relative to body weight) LS Means", "setting": "[4]; 1X, 30 mg/kg IV every 8 hours", "value": 13.69},
      {"measurement": "Liver (absolute weight) LS Means", "setting": "[4]; 2X, 60 mg/kg IV every 8 hours", "value": 6892.50, "unit": "g"},
      {"measurement": "Liver (relative to body weight) LS Means", "setting": "[4]; 2X, 60 mg/kg IV every 8 hours", "value": 15.28},
      {"measurement": "Liver (absolute weight) LS Means", "setting": "[4]; 3X, 90 mg/kg IV every 8 hours", "value": 7765.21, "unit": "g"},
      {"measurement": "Liver (relative to body weight) LS Means", "setting": "[4]; 3X, 90 mg/kg IV every 8 hours", "value": 16.38},
      {"measurement": "Effect on absolute and relative liver weights", "setting": "[4]; 30, 60, 90 mg/kg IV every 8 hours for 9 days vs placebo", "value": "statistically significant increase in absolute and relative liver weights"},
      {"measurement": "Renal, hepatic and gastrointestinal gross necropsy and histopathology evaluation", "setting": "[4]; up to 90 mg/kg IV every 8 hours for 9 days", "value": "no significant findings"}
    ]}
  ]
}
